The values that follow come from patent US20100062939A1, “Herbicide/Safener Combination Comprising Dimethoxytriazinyl-Substituted Difluoromethanesulfonylanilides” (BAYER CROPSCIENCE AG, priority 2008, published 2010).

Holding throughout (format): in vivo
Experiment [1] deals with rice (cultivar: Rice Ballila). As to the kind of experiment: Crop plant compatibility, post-emergence, rice. The note with it: individual compound, no safener. The method, then: (§1) Seeds of crop plants were placed in sandy loam and then covered with soil. The pots were placed in a greenhouse and kept under good growth conditions for the crop plants. Two weeks after sowing, the test plants were treated at the 1-3 leaf stage. The active compounds of components (A) and (B), formulated in the form of wettable powders, were then sprayed as aqueous suspensions at various dosages onto the green parts of the plants, using an application rate of 300 l of water/ha (converted).
(§2) The visual scoring of the herbicidal effects in the combination with or without safener was carried out after the number of days stated in the tables (DAT=days after treatment). Scoring was carried out in percent in comparison to the untreated control plants (herbicidal activity in %). 0%=no herbicidal activity, 100%=complete herbicidal activity=complete kill.
(§3) The safener action was calculated by comparing the herbicidal activity in % of the herbicide combination without (individual compound) and with safener (combination). The difference of the herbicidal activity in % between the individual compound and the combination was then calculated in percent (safener action in %): 0%=no improvement by addition of safener, 100%=complete improvement by addition of safener=maximum crop plant compatibility.

The subject of a further experiment is corn (cultivar: Oldham). Briefly: Crop plant compatibility, post-emergence, corn. Particulars: 17 DAT, individual compound, component A 20 g of ai/ha, no safener. How it is done:
as §1, §2, §3

Experiment [2] concerns barley (cultivar: Adonis). Briefly: Crop plant compatibility, post-emergence, barley. The note with it: 17 DAT, individual compound, no safener. The method, then: as §1, §2, §3
The subject of the next experiment is wheat (cultivar: Triso). As to the kind of experiment: Crop plant compatibility, post-emergence, wheat. Particulars: individual compound, no safener. How it is done: as §1, §2, §3
Setting [3] is: 17 DAT, component A 20 g of ai/ha.

For the compound `COc1nc(OC)nc(C(O)c2cccc(F)c2NS(=O)(=O)C(F)F)n1` (centres unmarked) [compound (A-3)], the “Herbicidal activity in %” value in experiment [1] (10 DAT, component A 2.2 g of ai/ha) was 30%; in experiment [1] (setting [3]), 50%; in the experiment with corn (cultivar: Oldham) it was 30%; in experiment [2] (component A 6.7 g of ai/ha), 10%; in experiment [2] (component A 20 g of ai/ha), 20%; in the experiment on wheat (cultivar: Triso) (10 DAT, component A 6.7 g of ai/ha), 5%. Besides, the “Herbicidal activity in %” value in the experiment with wheat (cultivar: Triso) (17 DAT, component A 2.2 g of ai/ha) was 8%; in the experiment on wheat (cultivar: Triso) (setting [3]), 20%.
